# Source: PubChem BioAssay (NCI)
#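 Cultured in 96-well plates, cells were exposed to test compound for 48 hours across five concentrations. At the GI50, growth is halved. TGI denotes the concentration required for complete inhibition of growth.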
# Test system: MCF7 breast
# Test: NCI tumour cell line growth inhibition, 48 h
SMILES,GI50 [nM],TGI [µM]
C=CCC1(O)c2ccccc2C(=O)c2c(NCCN(CC(=O)OCC)CC(=O)OCC)cccc21 (stereo not given),> 100000,> 100
COc1cccc(-n2nc(C)c3c(N/N=C(\C)c4ccncc4)ncnc32)c1,> 25000,> 25
Cc1ccc(-c2nc(C#N)c(S(=O)(=O)n3nc(C)cc3N)o2)cc1,3070,15.5
CCn1cnc(C[C@H](NC(=O)[C@@H](NC(=O)Nc2cc(C(F)(F)F)cc(C(F)(F)F)c2)C(C)C)C(=O)OC)c1,1830,3.8
O=C(Nc1cccc(-n2cc(-c3ccncc3)c(-c3ccc(Cl)c(O)c3)n2)c1)c1ccc(N2CCOCC2)c(C(F)(F)F)c1,2810,> 50
O=C(Nc1ccncc1)C(=O)c1cn(Cc2ccc(Cl)cc2)c2ccccc12,36.3,> 100
CC(=O)C(=Cc1ccc(C=C(C(C)=O)C(C)=O)cc1)C(C)=O,,2.36
COC(=O)c1ccccc1OCc1cc(=O)oc2ccc(C)cc12,,> 100
COc1ccc(-c2nc(-c3ccccc3)c(-c3ccccc3)[nH]2)cc1OC1CCCC1,> 100000,> 100
O=C(O)c1cc2ccc3ccccc3c2oc1=O,,> 100
O=[N+]([O-])c1ccc2c(c1)Cc1cc(N=Cc3ccc4c(c3)OCO4)ccc1-2,,> 100
COC(=O)[C@@]12OC[C@]34[C@H]([C@@H](O)[C@@H]1O)[C@@]1(C)[C@H](O)C(=O)C=C(C)[C@@H]1C[C@H]3OC(=O)C(OC(C)=O)[C@@H]24 (stereo not given in full),21.4,0.0701

# Test system: MDA-MB-435
# Test: NCI tumour cell line growth inhibition, 48 h
SMILES,GI50 [µM],TGI [µM]
C=CCC1(O)c2ccccc2C(=O)c2c(NCCN(CC(=O)OCC)CC(=O)OCC)cccc21 (stereo not given),> 100,> 100
COc1cccc(-n2nc(C)c3c(N/N=C(\C)c4ccncc4)ncnc32)c1,> 25,> 25
Cc1ccc(-c2nc(C#N)c(S(=O)(=O)n3nc(C)cc3N)o2)cc1,10.5,22.7
CCn1cnc(C[C@H](NC(=O)[C@@H](NC(=O)Nc2cc(C(F)(F)F)cc(C(F)(F)F)c2)C(C)C)C(=O)OC)c1,3.17,> 10
O=C(Nc1cccc(-n2cc(-c3ccncc3)c(-c3ccc(Cl)c(O)c3)n2)c1)c1ccc(N2CCOCC2)c(C(F)(F)F)c1,2.04,> 50
O=C(Nc1ccncc1)C(=O)c1cn(Cc2ccc(Cl)cc2)c2ccccc12,< 0.01,0.044
CC(=O)C(=Cc1ccc(C=C(C(C)=O)C(C)=O)cc1)C(C)=O,,5.66
COC(=O)c1ccccc1OCc1cc(=O)oc2ccc(C)cc12,,> 100
COc1ccc(-c2nc(-c3ccccc3)c(-c3ccccc3)[nH]2)cc1OC1CCCC1,> 100,> 100
O=C(O)c1cc2ccc3ccccc3c2oc1=O,,> 100
O=[N+]([O-])c1ccc2c(c1)Cc1cc(N=Cc3ccc4c(c3)OCO4)ccc1-2,,> 100
COC(=O)[C@@]12OC[C@]34[C@H]([C@@H](O)[C@@H]1O)[C@@]1(C)[C@H](O)C(=O)C=C(C)[C@@H]1C[C@H]3OC(=O)C(OC(C)=O)[C@@H]24 (stereo not given in full),0.0319,0.148

# Test system: NCI-H226 lung
# Test: NCI tumour cell line growth inhibition, 48 h
SMILES,GI50 [µM],TGI [µM]
C=CCC1(O)c2ccccc2C(=O)c2c(NCCN(CC(=O)OCC)CC(=O)OCC)cccc21 (stereo not given),> 100,> 100
COc1cccc(-n2nc(C)c3c(N/N=C(\C)c4ccncc4)ncnc32)c1,> 8.39,> 25
Cc1ccc(-c2nc(C#N)c(S(=O)(=O)n3nc(C)cc3N)o2)cc1,15.6,41.4
CCn1cnc(C[C@H](NC(=O)[C@@H](NC(=O)Nc2cc(C(F)(F)F)cc(C(F)(F)F)c2)C(C)C)C(=O)OC)c1,3.74,> 10
O=C(Nc1cccc(-n2cc(-c3ccncc3)c(-c3ccc(Cl)c(O)c3)n2)c1)c1ccc(N2CCOCC2)c(C(F)(F)F)c1,> 50,> 50
O=C(Nc1ccncc1)C(=O)c1cn(Cc2ccc(Cl)cc2)c2ccccc12,0.276,> 100
CC(=O)C(=Cc1ccc(C=C(C(C)=O)C(C)=O)cc1)C(C)=O,,7.8
COC(=O)c1ccccc1OCc1cc(=O)oc2ccc(C)cc12,,> 100
COc1ccc(-c2nc(-c3ccccc3)c(-c3ccccc3)[nH]2)cc1OC1CCCC1,> 100,> 100
O=C(O)c1cc2ccc3ccccc3c2oc1=O,,> 100
O=[N+]([O-])c1ccc2c(c1)Cc1cc(N=Cc3ccc4c(c3)OCO4)ccc1-2,,> 100
COC(=O)[C@@]12OC[C@]34[C@H]([C@@H](O)[C@@H]1O)[C@@]1(C)[C@H](O)C(=O)C=C(C)[C@@H]1C[C@H]3OC(=O)C(OC(C)=O)[C@@H]24 (stereo not given in full),0.025,0.0992

# Test system: SK-OV-3 ovarian
# Test: NCI tumour cell line growth inhibition, 48 h
SMILES,GI50 [µM],TGI [µM]
C=CCC1(O)c2ccccc2C(=O)c2c(NCCN(CC(=O)OCC)CC(=O)OCC)cccc21 (stereo not given),> 100,> 100
COc1cccc(-n2nc(C)c3c(N/N=C(\C)c4ccncc4)ncnc32)c1,13.4,> 25
Cc1ccc(-c2nc(C#N)c(S(=O)(=O)n3nc(C)cc3N)o2)cc1,27.5,71.1
CCn1cnc(C[C@H](NC(=O)[C@@H](NC(=O)Nc2cc(C(F)(F)F)cc(C(F)(F)F)c2)C(C)C)C(=O)OC)c1,2.06,4.41
O=C(Nc1cccc(-n2cc(-c3ccncc3)c(-c3ccc(Cl)c(O)c3)n2)c1)c1ccc(N2CCOCC2)c(C(F)(F)F)c1,20,> 50
O=C(Nc1ccncc1)C(=O)c1cn(Cc2ccc(Cl)cc2)c2ccccc12,0.199,> 100
CC(=O)C(=Cc1ccc(C=C(C(C)=O)C(C)=O)cc1)C(C)=O,,17
COC(=O)c1ccccc1OCc1cc(=O)oc2ccc(C)cc12,,> 100
COc1ccc(-c2nc(-c3ccccc3)c(-c3ccccc3)[nH]2)cc1OC1CCCC1,> 100,> 100
O=C(O)c1cc2ccc3ccccc3c2oc1=O,,> 100
O=[N+]([O-])c1ccc2c(c1)Cc1cc(N=Cc3ccc4c(c3)OCO4)ccc1-2,,> 100
COC(=O)[C@@]12OC[C@]34[C@H]([C@@H](O)[C@@H]1O)[C@@]1(C)[C@H](O)C(=O)C=C(C)[C@@H]1C[C@H]3OC(=O)C(OC(C)=O)[C@@H]24 (stereo not given in full),0.0522,1.12

# Test system: T-47D breast
# Test: NCI tumour cell line growth inhibition, 48 h
SMILES,GI50 [µM],TGI [µM]
C=CCC1(O)c2ccccc2C(=O)c2c(NCCN(CC(=O)OCC)CC(=O)OCC)cccc21 (stereo not given),80.6,> 100
COc1cccc(-n2nc(C)c3c(N/N=C(\C)c4ccncc4)ncnc32)c1,6.6,> 25
Cc1ccc(-c2nc(C#N)c(S(=O)(=O)n3nc(C)cc3N)o2)cc1,2.27,5.76
CCn1cnc(C[C@H](NC(=O)[C@@H](NC(=O)Nc2cc(C(F)(F)F)cc(C(F)(F)F)c2)C(C)C)C(=O)OC)c1,3.66,> 10
O=C(Nc1cccc(-n2cc(-c3ccncc3)c(-c3ccc(Cl)c(O)c3)n2)c1)c1ccc(N2CCOCC2)c(C(F)(F)F)c1,35.9,> 50
O=C(Nc1ccncc1)C(=O)c1cn(Cc2ccc(Cl)cc2)c2ccccc12,0.0436,> 100
CC(=O)C(=Cc1ccc(C=C(C(C)=O)C(C)=O)cc1)C(C)=O,,8.49
COC(=O)c1ccccc1OCc1cc(=O)oc2ccc(C)cc12,,> 100
COc1ccc(-c2nc(-c3ccccc3)c(-c3ccccc3)[nH]2)cc1OC1CCCC1,34.9,> 100
O=C(O)c1cc2ccc3ccccc3c2oc1=O,,> 100
O=[N+]([O-])c1ccc2c(c1)Cc1cc(N=Cc3ccc4c(c3)OCO4)ccc1-2,,> 100
COC(=O)[C@@]12OC[C@]34[C@H]([C@@H](O)[C@@H]1O)[C@@]1(C)[C@H](O)C(=O)C=C(C)[C@@H]1C[C@H]3OC(=O)C(OC(C)=O)[C@@H]24 (stereo not given in full),0.0362,0.3
